≈ marks a conversion by molar mass, not a printed value. Read-outs that look alike come from different tables or passages of the source.
Columns and labels:
S. aureus Newman = assay: MIC in RPMI-1640 macrophage growth medium; format: cell-based; settings: RPMI-1640 macrophage growth medium supplemented with 0.5% (v/v) FBS
Procedure: Determination of intracellular efficiency. For infection experiments, cells were seeded in 24-well plates in RPMI-1640 supplemented with 10% FBS and 150 nM phorbol 12-myristate 13-acetate (PMA) at a concentration of 10^5 cells/well. After 2 d, the cells were differentiated into macrophages and reached a cell density of ca. 2 x 10^5 cells/well. The medium was then removed and the cells were washed twice with PBS. An inoculum of ca. 2×10^6 CFU (colony-forming units) of S. aureus Newman in log phase (multiplicity of infection, MOI=10) was added to each well in RPMI/10% FBS and the plates were incubated at 37 °C and 5% CO2 in a water vapor-saturated atmosphere. The inoculum was checked by serial dilution and plating on CASO agar (1.5% peptone casein, 0.5% peptone soymeal, 0.5% NaCl, 1.5% agar, pH 7.3). After 2 h, the infected cells were washed three times with PBS (phosphate-buffered saline; pH 7.4) and incubated with fresh growth medium containing 10 µg/mL lysostaphin (≥500 U/mg) for 30 min in order to kill remaining extracellular bacteria. The initial load (Control t0) was checked by recovery of intracellular bacteria and plating on CASO agar. After three times washing with PBS the test compounds were added in RPMI-1640/0.5% FBS at the given concentrations for 18 h. After repeated washing with PBS the intracellular bacteria were recovered by adding ice-cooled water for 10 min and the bacterial suspensions were further diluted in 0.9% (w/v) NaCl prior to plating on CASO agar. The plates were incubated overnight at 37 °C and colonies were counted. The MIC values on S. aureus Newman in RPMI-1640 macrophage growth medium supplemented with 0.5% (v/v) fetal bovine serum (FBS) for neosorangicin A (2), sorangicin A (1) and the reference antibiotic rifampicin (RIF) were 0.01, 0.13 and 0.01 µg/mL, respectively. Human THP-1 macrophages were infected with S. aureus at an MOI (multiplicity of infection) of 10. After killing of extracellular bacteria, the cells were treated for 18 h with the antibiotics at their respective 1x and 8x MIC. […]

S. aureus RNA polymerase = target: T1, S. aureus RNA polymerase (Staphylococcus aureus, UniProt P47768); assay: RNA polymerase inhibition assay (ProFoldin kit); format: biochemical
T1 construct: purchased ProFoldin, MA
Procedure: The inhibition of S. aureus RNA polymerase by Sorangicin derivatives 1 and 2 was tested in vitro (bacterial RNA Polymerase Assay Kit; ProFoldin, MA). The samples were prepared and analyzed according to the manufacturer's protocol with slight modifications. In brief, serial dilutions (concentration range: 0.1 nM - 10 µM) of rifampicin, sorangicin A (1) and neosorangicin A (2) in black 384-well plates (low-volume, non-binding surface; Corning) were incubated for 1 h at room temperature with 25 nM RNA polymerase from S. aureus in assay buffer (42.5 mM HEPES, 42.5 mM NH4Cl, 2 mM DTT, 4 mM MgCl2, 0.005 % (v/v) Tween-20; pH 7.5) containing 0.5 mM NTPs and 1x DNA template. The reaction was monitored by incubation with a fluorescent probe for 5 min and measurement of the fluorescence intensity at 535 nm after excitation at 485 nm (Tecan Infinite M200PRO). Half-inhibitory concentrations (IC50) were determined in two independent experiments by sigmoidal curve fitting and given values are IC50 ± SD.

[1] = system: Escherichia coli DSM-1116 + 3 µg/ml PMBN; assay: Microbroth dilution assay (MIC) with PMBN; format: cell-based; settings: for Minimum inhibitory concentrations (MIC): 18-24 h
Procedure: (§1) Bacterial strains. All microorganisms were obtained from the German Collection of Microorganisms and Cell Cultures (Deutsche Sammlung für Mikroorganismen und Zellkulturen, DSMZ) and the American Type Culture Collection (ATCC) or were part of our internal strain collection.
(§2) Antimicrobial Testing. Sorangicin A (1) and Neosorangicin A (2) were tested in microbroth dilution assays on a panel of Gram-positive and Gram-negative bacteria. Overnight cultures were prepared from cryopreserved cultures and were diluted to achieve a final inoculum of 10^4-10^5 cfu/mL. Serial dilutions of compounds in DMSO were prepared in sterile 96-well plates in the test medium (cation-adjusted Müller-Hinton broth; supplemented with 2% (w/v) NaCl for S. aureus and 2.5% (v/v) lysed horse blood for Enterococcus and Streptococcus spp.) The cell suspension was added and microorganisms were grown for 18-24 h at either 30°C or 37°C. Streptococci and enterococci were grown under microaerophilic conditions. Growth inhibition was assessed by visual inspection and given MIC values are the lowest concentration of antibiotic at which there was no visible growth. Table 2. Antimicrobial activity; Minimum inhibitory concentrations (MIC, µg/mL) of neosorangicin A (2), sorangicin A (1), and a reference antibiotic (RIF; Rifampicin) on selected Gram-positive (I) and Gram-negative (II) species.
However, similar to 1, neosorangicin A (2) was not active on a rifampicin-resistant (Rif^R) derivative of S. aureus Newman, which confirms overlapping binding sites on RNA polymerase. […] In addition, the MIC values of 2 on efflux-deficient E. coli mutants (TolC as part of the AcrAB multidrug efflux system) were decreased.

[2] = system: Staphylococcus aureus ATCC29213; assay: Microbroth dilution assay (MIC); format: cell-based; settings: 18-24 h, 2% NaCl
Procedure: as §1, §2

[3] = system: Enterococcus faecalis DSM-20478; assay: Microbroth dilution assay (MIC); format: cell-based; settings: 2.5% lysed horse blood, microaerophilic; for Minimum inhibitory concentrations (MIC): 18-24 h
Procedure: as §1, §2

[4] = system: Pseudomonas aeruginosa DSM-1128; assay: Microbroth dilution assay (MIC); format: cell-based; settings: for Minimum inhibitory concentrations (MIC): 18-24 h
Procedure: as §1, §2

[5] = system: Acinetobacter baumannii DSM-30008; assay: Microbroth dilution assay (MIC); format: cell-based; settings: for Minimum inhibitory concentrations (MIC): 18-24 h
Procedure: as §1, §2

[6] = system: Escherichia coli DSM-26863 (tolC3); assay: Microbroth dilution assay (MIC); format: cell-based; settings: for Minimum inhibitory concentrations (MIC): Escherichia coli DSM-26863 (tolC3), 18-24 h
Procedure: as §1, §2

[7] = system: Staphylococcus aureus DSM-346; assay: Microbroth dilution assay (MIC); format: cell-based; settings: 2% NaCl; for Minimum inhibitory concentrations (MIC): 18-24 h
Procedure: as §1, §2

[8] = system: Staphylococcus aureus Newman; assay: Microbroth dilution assay (MIC); format: cell-based; settings: 18-24 h, 2% NaCl
Procedure: as §1, §2

[9] = system: Enterococcus faecium DSM-20477; assay: Microbroth dilution assay (MIC); format: cell-based; settings: 2.5% lysed horse blood, microaerophilic; for Minimum inhibitory concentrations (MIC): 18-24 h
Procedure: as §1, §2

[10] = system: Escherichia coli (TolC-deficient); assay: Microbroth dilution assay (MIC); format: cell-based; settings: for Minimum inhibitory concentrations (MIC): Escherichia coli (TolC-deficient), 18-24 h
Procedure: as §1, §2

[11] = system: Klebsiella pneumoniae DSM-30104; assay: Microbroth dilution assay (MIC); format: cell-based; settings: for Minimum inhibitory concentrations (MIC): 18-24 h
Procedure: as §1, §2

[12] = system: Escherichia coli DSM-1116; assay: Microbroth dilution assay (MIC); format: cell-based; settings: for Minimum inhibitory concentrations (MIC): 18-24 h
Procedure: as §1, §2

[13] = system: Streptococcus pneumoniae DSM-11865; assay: Microbroth dilution assay (MIC); format: cell-based; settings: 2.5% lysed horse blood, microaerophilic; for Minimum inhibitory concentrations (MIC): 18-24 h
Procedure: as §1, §2

[14] = system: Staphylococcus aureus Newman (Rif^R); assay: Microbroth dilution assay (MIC); format: cell-based; settings: for Minimum inhibitory concentrations (MIC): Staphylococcus aureus Newman (Rif^R), 18-24 h, 2% NaCl; for activity on rifampicin-resistant (Rif^R) derivative of S. aureus Newman: result in words
Procedure: as §1, §2

[15] = system: intracellular S. aureus Newman; assay: Intracellular efficacy in infected THP-1 macrophages; format: cell-based; settings: intracellular S. aureus Newman in PMA-differentiated THP-1 macrophages; MOI 10; 18 h treatment at 1x and 8x MIC
Procedure: (§3) Cells. Human acute monocytic leukemia THP-1 cells (ACC-16) were obtained from the German Collection of Microorganisms and Cell Cultures (DSMZ) and were maintained under conditions recommended by the depositor.
Determination of intracellular efficiency. For infection experiments, cells were seeded in 24-well plates in RPMI-1640 supplemented with 10% FBS and 150 nM phorbol 12-myristate 13-acetate (PMA) at a concentration of 10^5 cells/well. After 2 d, the cells were differentiated into macrophages and reached a cell density of ca. 2 x 10^5 cells/well. The medium was then removed and the cells were washed twice with PBS. An inoculum of ca. 2×10^6 CFU (colony-forming units) of S. aureus Newman in log phase (multiplicity of infection, MOI=10) was added to each well in RPMI/10% FBS and the plates were incubated at 37 °C and 5% CO2 in a water vapor-saturated atmosphere. The inoculum was checked by serial dilution and plating on CASO agar (1.5% peptone casein, 0.5% peptone soymeal, 0.5% NaCl, 1.5% agar, pH 7.3). After 2 h, the infected cells were washed three times with PBS (phosphate-buffered saline; pH 7.4) and incubated with fresh growth medium containing 10 µg/mL lysostaphin (≥500 U/mg) for 30 min in order to kill remaining extracellular bacteria. […] The plates were incubated overnight at 37 °C and colonies were counted. […]

Human THP-1 macrophages = assay: Toxicity towards THP-1 macrophages (microscopic control); format: cell-based; settings: 18 h treatment at 1x and 8x MIC
Procedure: • Figure 1. Chemical structures of sorangicin A (1) and of a compound according to the present invention - neosorangicin A - (2). • Figure 2. A) Reduction of intracellular S. aureus Newman (CFU: colony-forming unit) in PMA-differentiated THP-1 cells after 18 h treatment with rifampicin (RIF), neosorangicin A (2) and sorangicin A (1) at their respective 1x and 8x MIC. B) Microscopic control of THP-1 cells that were either treated with neosorangicn A (2) or 0.5% (v/v) DMSO as solvent control. • Figure 3. Comparison of sorangicin and neosorangicin biosynthetic pathways. Wavy bond symbolize phosphopantheteinyl arms. ACP domains are shown as small, unlabeled circles. Domains that are missing from one of the two pathways are shown as asterisks.
as §3
Determination of intracellular efficiency. For infection experiments, cells were seeded in 24-well plates in RPMI-1640 supplemented with 10% FBS and 150 nM phorbol 12-myristate 13-acetate (PMA) at a concentration of 10^5 cells/well. After 2 d, the cells were differentiated into macrophages and reached a cell density of ca. 2 x 10^5 cells/well. […] The plates were incubated overnight at 37 °C and colonies were counted. […]

[16] = DSM1116, 18-24 h, read-out: Minimum inhibitory concentrations (MIC)
[17] = read-out: Minimum inhibitory concentrations (MIC)
[18] = purified S. aureus RNA polymerase 25 nM, 1 h at room temperature, IC50 ± SD, two independent experiments, read-out: IC50

T1 sequence (P47768 whole entry): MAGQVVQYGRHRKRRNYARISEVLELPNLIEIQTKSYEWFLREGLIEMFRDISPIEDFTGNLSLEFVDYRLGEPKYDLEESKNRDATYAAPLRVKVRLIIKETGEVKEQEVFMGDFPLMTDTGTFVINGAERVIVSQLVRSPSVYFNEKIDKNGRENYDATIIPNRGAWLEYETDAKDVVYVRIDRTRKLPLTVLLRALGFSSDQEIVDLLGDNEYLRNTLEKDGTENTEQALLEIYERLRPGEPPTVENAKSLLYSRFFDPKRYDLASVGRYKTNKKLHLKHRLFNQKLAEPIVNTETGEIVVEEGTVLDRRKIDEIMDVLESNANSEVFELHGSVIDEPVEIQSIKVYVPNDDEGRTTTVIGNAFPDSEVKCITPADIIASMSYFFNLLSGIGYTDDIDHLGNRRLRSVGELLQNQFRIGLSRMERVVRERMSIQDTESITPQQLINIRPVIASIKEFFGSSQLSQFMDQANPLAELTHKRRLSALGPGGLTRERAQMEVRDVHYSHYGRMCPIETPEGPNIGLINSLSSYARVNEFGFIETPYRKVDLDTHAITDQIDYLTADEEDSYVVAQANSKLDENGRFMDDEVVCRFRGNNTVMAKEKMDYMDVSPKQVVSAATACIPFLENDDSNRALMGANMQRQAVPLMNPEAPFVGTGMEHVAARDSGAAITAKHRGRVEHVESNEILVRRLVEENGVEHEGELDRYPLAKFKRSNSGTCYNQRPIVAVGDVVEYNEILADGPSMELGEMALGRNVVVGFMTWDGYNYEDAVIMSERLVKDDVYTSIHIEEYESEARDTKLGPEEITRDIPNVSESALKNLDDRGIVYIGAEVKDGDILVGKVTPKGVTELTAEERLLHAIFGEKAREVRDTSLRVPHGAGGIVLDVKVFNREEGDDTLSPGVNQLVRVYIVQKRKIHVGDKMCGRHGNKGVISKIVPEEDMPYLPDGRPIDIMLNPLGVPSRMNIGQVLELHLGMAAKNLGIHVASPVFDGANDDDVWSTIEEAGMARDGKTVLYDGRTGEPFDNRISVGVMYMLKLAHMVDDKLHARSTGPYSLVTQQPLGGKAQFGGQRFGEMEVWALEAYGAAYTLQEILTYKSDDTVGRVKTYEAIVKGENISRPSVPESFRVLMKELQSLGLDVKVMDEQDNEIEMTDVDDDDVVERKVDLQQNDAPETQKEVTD

| Compound | MIC values on S. aureus Newman (S. aureus Newman) [µg/mL] | IC50 (S. aureus RNA polymerase; [18]) [nM] | Minimum inhibitory concentrations (MIC) [1] [µg/mL] | Minimum inhibitory concentrations (MIC) [2] [µg/mL] | Minimum inhibitory concentrations (MIC) [3] [µg/mL] | Minimum inhibitory concentrations (MIC) [4] [µg/mL] | Minimum inhibitory concentrations (MIC) [5] [µg/mL] | Minimum inhibitory concentrations (MIC) [6] [µg/mL] | Minimum inhibitory concentrations (MIC) [7] [µg/mL] | Minimum inhibitory concentrations (MIC) [8] [µg/mL] | Minimum inhibitory concentrations (MIC) [9] [µg/mL] | Minimum inhibitory concentrations (MIC) [10] [µg/mL] | Minimum inhibitory concentrations (MIC) [11] [µg/mL] | Minimum inhibitory concentrations (MIC) [12] [µg/mL] | Minimum inhibitory concentrations (MIC) [13] [µg/mL] | Minimum inhibitory concentrations (MIC) [14] [µg/mL] | activity on rifampicin-resistant (Rif^R) derivative of S. aureus Newman [14] | other results |
| --- | --- | --- | --- | --- | --- | --- | --- | --- | --- | --- | --- | --- | --- | --- | --- | --- | --- | --- |
| CO[C@H]1/C=C/O[C@@]2(C)Oc3c(C)c(O)c4c(O)c(c(/C=N/N5CCN(C)CC5)c(O)c4c3C2=O)NC(=O)/C(C)=C\C=C\[C@H](C)[C@H](O)[C@@H](C)[C@@H](O)[C@@H](C)[C@H](OC(C)=O)[C@@H]1C [RIF, Rifampicin] |  |  |  |  |  |  |  |  |  |  |  |  |  |  |  |  |  | MIC (S. aureus Newman; Staphylococcus aureus, NEWMAN): 0.01 µg/mL (≈ 0.0122 µM); IC50 (S. aureus RNA polymerase): 30 ± 20 nM; MIC [1, 16]: 0.4 µg/mL (≈ 0.486 µM); MIC [2, 17]: 0.01 µg/mL (≈ 0.0122 µM); MIC ([3]; DSM20478, 18-24 h, read-out: Minimum inhibitory concentrations (MIC)): 6.4 µg/mL (≈ 7.78 µM); MIC ([4]; DSM1128, 18-24 h, read-out: Minimum inhibitory concentrations (MIC)): > 6.4 µg/mL; MIC ([5]; DSM30008, 18-24 h, read-out: Minimum inhibitory concentrations (MIC)): 1.6 µg/mL (≈ 1.94 µM); MIC ([6]; Escherichia coli, DSM26863, read-out: Minimum inhibitory concentrations (MIC)): 6.4 µg/mL (≈ 7.78 µM); MIC ([7]; DSM346, 18-24 h, read-out: Minimum inhibitory concentrations (MIC)): 0.006 µg/mL (≈ 0.00729 µM); MIC [8, 17]: 0.01 µg/mL (≈ 0.0122 µM); MIC ([9]; DSM20477, 18-24 h, read-out: Minimum inhibitory concentrations (MIC)): > 6.4 µg/mL; MIC ([10]; Escherichia coli, read-out: Minimum inhibitory concentrations (MIC)): 6.4 µg/mL (≈ 7.78 µM); MIC ([11]; DSM30104, 18-24 h, read-out: Minimum inhibitory concentrations (MIC)): 6.4 µg/mL (≈ 7.78 µM); MIC [12, 16]: 6.4 µg/mL (≈ 7.78 µM); MIC ([13]; DSM11865, 18-24 h, read-out: Minimum inhibitory concentrations (MIC)): 0.1 µg/mL (≈ 0.122 µM); MIC ([14]; Staphylococcus aureus, NEWMAN, read-out: Minimum inhibitory concentrations (MIC)): > 6.4 µg/mL |
| neosorangicin A [compound 2] | 0.01 | 60 ± 10 | 0.25 | 0.01 | 0.5 | 8 | 8 | 2 | 0.25 | 0.01 | 8 | 1 | 8 | 8 | 0.5 | > 64 | not active | reduction of the bacterial load [15]: 3 Log; toxicity towards the human macrophages (Human THP-1 macrophages): without displaying any apparent toxicity |
| sorangicin A [compound 1] | 0.13 | 210 ± 120 | 0.25 | 0.03 | 2 | 32 | 8 | 8 | 1 | 0.1 | 16 | 8 | 16 | 16 | 32 | > 64 | not active |  |

From EP3498714B1 (priority 2017, dated 2019)
